Consider seven compounds from US8354502B2, “Bioactive peptides identified in enzymatic hydrolyzates of milk caseins and method of obtaining same” (Consejo Superior de Investigaciones Cientificas, priority 2005, dated 2013).

Like-named read-outs stand apart in the source and are kept apart here. Where a SMILES comes first, the peptide text is derived from it. Where no end group is shown, it is not given here. Bounds are passed on as bounds.

For test [1], the system named is Listeria innocua CECT 910T. Nature of the test: Antimicrobial activity (colony count after 2 h incubation). Type of test: cell-based. Particulars: synthetic peptide 0.05 mM. The protocol: (§1) The antimicrobial activity is determined in accordance with the method of A. Pellegrini, C. Deltting, U. Thomas, P. Hunziker (Isolation and characterization of four bactericidal domains in the bovine β-lactoglobulin Biochimica et Biophysica Acta, 2001, 1526:131-140) using as microorganisms Escherichia coli [American Type Culture Collection (ATCC), Rockville, Md., USA] ATCC 25922, Listeria innocua [Colección Española de Cultivos Tipo (CECT) Valencia, Spain] CECT 910T, Staphylococcus epidermidis CECT 231, Enterococcus faecalis CECT 795, Serratia marcescens CECT 854 and Staphylococcus carnosus CECT 4491T.
(§2) The bacterial suspensions are inoculated at 1% in the Tryptose Soy Broth (TSB) for Escherichia coli, Serratia marcescens and the strains of the Staphylococcus genus, or in the brain-heart infusion (BHI) broth for Enterococcus faecalis and Listeria innocua. The incubation is carried out at 37° C., except in the case of Serratia marcescens, which is at 30° C.
(§3) The bacterial innoculum, from which the work is begun, is obtained after incubating a colony grown in TSB-Agar or BHI-Agar in 10 mL of TSB or BHI overnight at 37a or 30° C. The bacterial suspension (1 mL) is diluted 1/50 with the corresponding culture medium, being incubated at the appropriate temperature for each strain up to achieving a population density of 1-4×10^8 colony-forming units (CFU) per mL. The culture is centrifuged at 2000×g for 10 minutes, the sedimented bacteria are washed twice with 15 mL phosphate buffer (pH 7.4) and the population is adjusted to 10^6 CFU/mL. On a sterile multi-well plate (Greiner Labortechnik, Frickenhausen, Germany), 50 μL of the bacterial suspension, 50 μL of the substance to be tested and 100 μL of the phosphate buffer are mixed with 2% of the appropriate culture medium in each case, and the mixture is incubated at 37° C. or 30° C. for 2 hours. After this time, the mixture is diluted to 10^−5, 100 μL of each one of the dilutions are added to TSB-Agar or BHI-Agar plates and the plates are incubated for 24 hours, after which time the colony count is taken.
(§4) The following equation is used for calculating the antimicrobial activity:
(§5) [formula] [formula] [formula] Measurement of the Angiotensin-Converting Enzyme Inhibitory Activity (ACEIa)

Test [2] concerns Enterococcus faecalis CECT 795. Described as above. Type of test: cell-based. The following applies: synthetic peptide 0.05 mM. The protocol:
as §1, §2, §3, §4, §5

Test [3] deals with Escherichia coli ATCC 25922. Described as above. Particulars: synthetic peptide 0.05 mM. Type of test: cell-based. The protocol: as §1, §2, §3, §4, §5
Test [4] relates to Serratia marcescens CECT 854. The test is described as above. In kind it is cell-based. Particulars: synthetic peptide 0.05 mM. On the procedure:
as §1, §2, §3, §4, §5

Test [5] concerns Staphylococcus epidermidis CECT 231. The description is as above. In kind it is cell-based. Particulars: synthetic peptide 0.05 mM. The protocol:
as §1, §2, §3, §4, §5

Test [6] has as its system Staphylococcus carnosus CECT 4491T. The description is as above. Type of test: cell-based. Particulars: synthetic peptide 0.05 mM. The protocol:
as §1, §2, §3, §4, §5

The target in test [7] is T1, angiotensin-converting enzyme (ACE) (Oryctolagus cuniculus, UniProt P12822).
T1 sequence (P12822 34-1310): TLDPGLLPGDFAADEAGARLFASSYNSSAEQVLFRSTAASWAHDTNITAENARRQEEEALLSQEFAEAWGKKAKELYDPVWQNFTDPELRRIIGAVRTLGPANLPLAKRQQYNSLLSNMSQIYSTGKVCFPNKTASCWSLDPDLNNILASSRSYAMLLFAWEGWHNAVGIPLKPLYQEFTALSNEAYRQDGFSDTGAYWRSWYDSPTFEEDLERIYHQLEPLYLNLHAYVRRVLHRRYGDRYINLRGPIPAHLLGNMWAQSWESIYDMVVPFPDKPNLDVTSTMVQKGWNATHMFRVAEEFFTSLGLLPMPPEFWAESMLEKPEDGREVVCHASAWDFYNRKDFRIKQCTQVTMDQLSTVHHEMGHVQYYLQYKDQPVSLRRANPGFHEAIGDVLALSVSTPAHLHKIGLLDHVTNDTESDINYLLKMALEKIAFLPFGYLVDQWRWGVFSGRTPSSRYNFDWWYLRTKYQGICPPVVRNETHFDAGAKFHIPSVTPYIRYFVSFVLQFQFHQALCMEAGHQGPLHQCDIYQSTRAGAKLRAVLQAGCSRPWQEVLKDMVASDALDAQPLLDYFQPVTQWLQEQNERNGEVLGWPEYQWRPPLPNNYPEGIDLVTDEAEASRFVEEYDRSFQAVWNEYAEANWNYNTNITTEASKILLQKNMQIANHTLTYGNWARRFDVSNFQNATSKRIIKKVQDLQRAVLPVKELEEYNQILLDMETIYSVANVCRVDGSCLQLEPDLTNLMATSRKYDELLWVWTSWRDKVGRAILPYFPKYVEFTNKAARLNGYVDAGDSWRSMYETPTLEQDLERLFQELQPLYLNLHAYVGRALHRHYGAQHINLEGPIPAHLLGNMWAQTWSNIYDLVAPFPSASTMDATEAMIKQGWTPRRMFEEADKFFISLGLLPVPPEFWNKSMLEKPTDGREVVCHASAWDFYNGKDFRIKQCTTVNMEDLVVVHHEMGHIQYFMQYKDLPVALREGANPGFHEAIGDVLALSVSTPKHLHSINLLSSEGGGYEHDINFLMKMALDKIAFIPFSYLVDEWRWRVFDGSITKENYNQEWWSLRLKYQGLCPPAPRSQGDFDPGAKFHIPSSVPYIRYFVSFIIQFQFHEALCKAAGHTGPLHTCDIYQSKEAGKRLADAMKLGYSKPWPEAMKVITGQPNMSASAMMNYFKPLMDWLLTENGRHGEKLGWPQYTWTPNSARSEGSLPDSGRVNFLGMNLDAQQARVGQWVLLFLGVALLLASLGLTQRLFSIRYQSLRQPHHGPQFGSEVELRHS
As to the kind of experiment: Angiotensin-converting enzyme inhibitory activity (ACEIa) in vitro. Type of test: biochemical. On the procedure:
The ACE-inhibitory activity is measured in vitro by the method of D. W. Cushman and H. S. Cheung (Spectrophotometric assay and properties of angiotensin-converting enzyme in rabbit lung. Biochemical Pharmacology, 1971, 20:1637-1648) later modified by […]. Yoon, D. Y. Yu, […]. Chung (Novel angiotensin-1-converting enzyme inhibitory peptides derived from recombinant human αs1-casein expressed in Escherichia coli. Journal of Dairy Research 1999, 66,431-439). The substrate, […], Sigma, Chemical Co, St. Louis, Mo., USA), is dissolved in 0.1 M borate buffer with 0.3 M NaCl, pH 8.3, to obtain a final concentration of 5 mM. 40 μL of each one of the samples whose ACE-inhibitory activity is to be assayed are added to 100 μL of substrate. The ACE enzyme ([…], Sigma) is added, dissolved in 50% glycerol and diluted at the point in time of performing the test in 1/10 bidistilled water. The reaction is carried out at 37° C. for 30 minutes in water bath. The enzyme is inactivated by reducing the pH with 150 μl HCL 1N. The hipuric acid formed is extracted with 1000 μL ethyl acetate. Following agitation in vortex for 20 seconds, it is centrifuged at 3000×g for 10 minutes at ambient temperature. 750 μL are taken from the organic phase that is heat-evaporated at 95° C. for 10 minutes. The hipuric acid residue is re-dissolved in 800 μL bidistilled water and, after agitating for 20 seconds, the absorbance at 228 nm is measured in a Dur-70 spectrophotometer from Beckman Instruments, Inc., Fullerton, USA. The following equation is used for calculating the percentage of ACE-inhibitory activity: [formula] The blank is used to correct the background absorbance. This blank contains substrate, enzyme and 20 μL bidistilled water instead of sample, and the reaction is halted at time zero. The control entailed one hundred percent of the enzymatic action on the substrate in absence of inhibitors and contains […] of water instead of sample and is incubated for the same length of time as the sample. The results are shown as IC50 (μM) or concentration at which the activity of the enzyme is inhibited by 50%. The protein concentration is determined by means of the bicinchoninic acid test (Pierce-Rockord, Ill., USA), using bovine seroalbumin as a pattern.

The subject of test [8] is spontaneously hypertensive rats (SHR). Nature of the test: Antihypertensive activity in spontaneously hypertensive rats (SHR), tail cuff SBP and DBP. Type of test: in vivo, rat. The following applies: 2 mg/kg, intragastric catheter. The protocol: The effect of several of the peptides identified on the blood pressure of spontaneously hypertensive rats (SHR) is studied. The peptides are chemically synthesized for this study.
The study is conducted with male SHR rats 17-20 weeks of age weighing 300 to 350 g, from Charles River Laboratories España S. A. The rats are kept in cages, five per cage, maintaining a stable temperature of 25° C., with 12-hour light-darkness cycles, taking water and food ad libitum. […] The SBP and DBP values are determined by taking 3 consecutive measurements and calculating the average of the three values for each one of these two variables. […]
The products to be tested are administered by means of an intragastric catheter within a time span ranging from 9 a.m. to 10 a.m., and the dosage tested is administered dissolved in 1 ml of distilled water. SBP and DBP readings are taken prior to the administration, and periodic measurements of these variables are also made every 2 hours following the administration, up to 8 hours post-administration. […]
The results are grouped and the ±average of the standard error of the measurement (SEM) for a minimum of 6 homogeneous tests is calculated. […]

Setting [9] is: read-out: ACE-inhibitory activity CI50, synthetic peptides of FC1 and FD1 subfractions.

For the compound LKKISQ [SEQ. ID. No. 1, LKKISQ], the “Antimicrobial activity L. innocua” value in test [1] came to 1.11. In addition, the “Antimicrobial activity E. faecalis” value in test [2] turned out to be 0. Moreover, the “Antimicrobial activity E. coli” value in test [3] is 0.33. The “Antimicrobial activity S. marcescens” value in test [4] is on record as 0. The “Antimicrobial activity S. epidermidis” value in test [5] was determined as 3.6. In test [6], the “Antimicrobial activity S. carnosus” value is on record as above 6 and the “antimicrobial activity against S. carnosus (in words)” value is “bactericidal activity”. The “ACE-inhibitory activity (in words)” value in test [7] is given as “potent ACE-inhibitory activity”. In addition, in test [7] (setting [9]), the IC50 turned out to be 2.1 µM.

On to “LKKISQYYQKFAWPQYL (Derived from casein) [SEQ. ID. No. 3, ovine αs2-casein fragment 165-181]”, for which the “Antimicrobial activity L. innocua” value in test [1] is listed as above 6. Moreover, the “Antimicrobial activity E. faecalis” value in test [2] is listed as 3.32. Moreover, in test [3], the “Antimicrobial activity E. coli” value was 4.63 and the “antimicrobial activity against E. coli (in words)” value was “high degree of antimicrobial activity”. In test [4], the “Antimicrobial activity S. marcescens” value is given as 0.38. The “Antimicrobial activity S. epidermidis” value in test [5] was above 6. Moreover, in test [6], the “Antimicrobial activity S. carnosus” value is above 6 and the “antimicrobial activity against S. carnosus (in words)” value is “bactericidal activity”.

Take PYVRYL [SEQ. ID. No. 7, PYVRYL]: the IC50 in test [7] (setting [9]) worked out at 1.94 µM.

As to HLPLPLL [SEQ. ID. No. 14, HLPLPLL], the IC50 in test [7] (synthetic peptides of bovine casein permeate fractions, read-out: ACE-inhibitory activity CI50) was 34.2 µM.

Take AYFYPEL [SEQ. ID. No. 13, AYFYPEL]: the IC50 in test [7] (read-out: ACE-inhibitory activity CI50, synthetic peptides of bovine casein permeate fractions) stood at 7.5 µM.

Turning to `CC(C)[C@H](NC(=O)[C@H](Cc1ccc(O)cc1)NC(=O)[C@@H]1CCCN1)C(=O)O` [SEQ. ID. No. 15, PYV] (H-Pro-Tyr-Val-OH; N-terminus and C-terminus assumed), the IC50 in test [7] (synthetic peptides resulting from simulated gastrointestinal digestion, read-out: ACE-inhibitory activity IC50) was 741 µM. Further, the “times less ACE-inhibitory activity than the starting peptide” value in test [7] (versus PYVRYL) came to 370 times. In test [8], the “lowering of the SBP and DBP” value is “significant lowering of the SBP and DBP”; the “time of peak effect on the SBP after administration” value amounted to 2 h.

Turning to “VDQHQKAMKPWTQPKTNAIPYVRYL (Derived from casein) [SEQ. ID. No. 2, ovine αs2-casein fragment 184-208]”, in test [1], the “Antimicrobial activity L. innocua” value came to 1.71. Further, in test [2], the “Antimicrobial activity E. faecalis” value is reported as 0. Moreover, the “Antimicrobial activity E. coli” value in test [3] is listed as 0.07. Besides, the “Antimicrobial activity S. marcescens” value in test [4] worked out at 0. Also, the “Antimicrobial activity S. epidermidis” value in test [5] stood at 0.61. Moreover, in test [6], the “Antimicrobial activity S. carnosus” value is on record as above 6 and the “antimicrobial activity against S. carnosus (in words)” value is “bactericidal activity”.
